In ChEMBL document CHEMBL1201862, “PubChem BioAssay data set” (2004):
Activity calls are given as the source filed them.

Columns and labels:
[1] = biological target: T1, Sphingosine 1-phosphate receptor 2 (Homo sapiens, UniProt O95136); assay: Dose Response Cell Based Assay for Antagonists of the S1P2 Receptor. [Related pubchem assays: 856, 736 ]; format: functional
[2] = biological target: T1, Sphingosine 1-phosphate receptor 2; assay: Dose Response Cell Based Assay for Agonists of the S1P2 Receptor. [Related pubchem assays: 729, 736, 843 ]; format: functional
[3] = Luminescent dose response cell-based high throughput screening assay for inhibitors of the Janus kinase 2 mutant JAK2V617F. [Related pubchem assays: 1446 (Primary screen.), 1521 (Confirmation assay.), 1486 (Counter screen.)]; format: functional
H4 = assay: Luminescence Cell-Based Dose Response HTS to Identify Activators of 5'UTR Stem-Loop Driven Prion Protein mRNA Translation in H4 Neuroglioblastoma Cells. [Related pubchem assays: 1829 (Project Summary), 1814 (Primary HTS)]; format: functional; details: Homo sapiens
[4] = Luminescence Cell-Based Dose Confirmation HTS to Identify Activators of 5'UTR Stem-Loop Driven Alpha-Synuclein mRNA Translation in H4 Neuroglioblastoma Cells. [Related pubchem assays: 1829 (Project Summary), 1814 (Primary HTS)]; format: functional
[5] = Luminescence Cell-Based Dose Response HTS to Identify Activators of Luciferase Translation or Activity in H4 […] Cells. [Related pubchem assays: 1829 (Project Summary), 1814 (Primary HTS)]; format: functional
[6] = biological target: Protein-tyrosine kinase 2-beta (Homo sapiens, UniProt Q14289);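 also: potency of inhibitors of PYK2 kinase phosphorylation of poly-GT substrate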
Sequence of Protein-tyrosine kinase 2-beta (Q14289 whole entry): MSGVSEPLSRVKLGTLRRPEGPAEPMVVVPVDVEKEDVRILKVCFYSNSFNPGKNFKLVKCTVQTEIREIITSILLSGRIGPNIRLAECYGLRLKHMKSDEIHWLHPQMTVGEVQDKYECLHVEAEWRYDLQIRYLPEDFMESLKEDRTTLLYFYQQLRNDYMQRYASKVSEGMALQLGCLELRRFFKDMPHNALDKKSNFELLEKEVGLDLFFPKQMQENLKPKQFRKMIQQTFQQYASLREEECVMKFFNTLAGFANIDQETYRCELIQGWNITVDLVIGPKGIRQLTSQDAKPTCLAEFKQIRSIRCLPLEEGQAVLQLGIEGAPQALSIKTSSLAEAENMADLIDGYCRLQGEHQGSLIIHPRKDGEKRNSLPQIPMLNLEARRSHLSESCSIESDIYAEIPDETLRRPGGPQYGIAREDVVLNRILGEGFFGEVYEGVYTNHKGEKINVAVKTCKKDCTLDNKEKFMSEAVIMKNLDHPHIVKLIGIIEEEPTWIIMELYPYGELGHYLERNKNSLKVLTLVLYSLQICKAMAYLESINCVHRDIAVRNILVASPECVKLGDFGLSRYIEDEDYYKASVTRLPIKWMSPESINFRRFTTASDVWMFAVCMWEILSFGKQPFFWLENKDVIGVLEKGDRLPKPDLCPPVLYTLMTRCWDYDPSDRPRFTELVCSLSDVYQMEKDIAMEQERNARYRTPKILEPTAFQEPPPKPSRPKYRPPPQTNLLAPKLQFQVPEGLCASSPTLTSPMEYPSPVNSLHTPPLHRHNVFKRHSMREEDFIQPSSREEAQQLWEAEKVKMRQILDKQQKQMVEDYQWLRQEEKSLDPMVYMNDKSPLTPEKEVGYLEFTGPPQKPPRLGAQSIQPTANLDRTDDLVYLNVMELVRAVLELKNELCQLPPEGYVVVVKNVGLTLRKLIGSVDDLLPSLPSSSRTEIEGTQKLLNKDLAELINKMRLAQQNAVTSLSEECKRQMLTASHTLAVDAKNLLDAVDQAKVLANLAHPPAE

[7] = IC50 of insulin release inhibition, rat insulinoma INS-1E line, 5 mM glucose, cell-based (AID 1117331); format: functional
[8] = glucagon-like peptide-1 release potency in STC-1, concentration-response, half-maximal inhibitory concentration in the STC-1 line (AID 1117345); format: functional, cell-based
[9] = Potency on glucagon-like peptide 1 release, dose-response in NCI-H716 cell line, half maximal inhibitory concentration (AID 1117344); format: functional, cell-based
[10] = biological target: T2, RNA-binding protein pos-1 (Caenorhabditis elegans, UniProt G5EF15); assay: disruptors of C. elegans POS-1 RNA interaction – biochemical, fluorescence polarization, dose response (AID 1964);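 also: purified POS-1 fused to maltose binding protein made in E. coli; potency of compounds blocking POS-1 binding to fluorescent RNA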
T2 sequence (G5EF15 whole entry): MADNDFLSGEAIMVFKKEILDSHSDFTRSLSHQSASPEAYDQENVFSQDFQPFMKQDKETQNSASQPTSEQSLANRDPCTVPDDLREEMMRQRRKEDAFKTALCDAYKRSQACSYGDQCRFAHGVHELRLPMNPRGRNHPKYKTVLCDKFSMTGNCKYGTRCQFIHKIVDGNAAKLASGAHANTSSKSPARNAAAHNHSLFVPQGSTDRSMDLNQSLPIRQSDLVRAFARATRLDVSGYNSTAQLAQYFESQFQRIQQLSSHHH

[11] = biological target: T3, Zinc finger protein mex-5 (Caenorhabditis elegans, UniProt Q9XUB2); assay: potency of MEX-5 RNA-binding blockers – biochemical, C. elegans, fluorescence polarization, dose response (AID 1960)
T3 sequence (Q9XUB2 whole entry): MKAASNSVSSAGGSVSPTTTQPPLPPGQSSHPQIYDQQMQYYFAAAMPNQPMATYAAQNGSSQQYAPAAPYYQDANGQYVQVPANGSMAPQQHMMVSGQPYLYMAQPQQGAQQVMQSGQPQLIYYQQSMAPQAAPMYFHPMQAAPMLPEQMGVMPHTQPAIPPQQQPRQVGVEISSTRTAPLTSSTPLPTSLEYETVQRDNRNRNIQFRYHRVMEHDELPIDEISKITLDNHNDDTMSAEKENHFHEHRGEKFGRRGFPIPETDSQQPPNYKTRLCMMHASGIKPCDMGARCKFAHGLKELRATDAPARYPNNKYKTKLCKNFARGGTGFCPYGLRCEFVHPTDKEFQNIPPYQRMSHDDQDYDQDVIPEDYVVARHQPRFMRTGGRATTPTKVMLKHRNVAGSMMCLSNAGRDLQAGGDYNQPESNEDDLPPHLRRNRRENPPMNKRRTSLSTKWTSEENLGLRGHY

Large T antigen = Large T antigen (Simian virus 40, UniProt P03070); format: functional, Betapolyomavirus macacae;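 also: Confirmatory-stage PubChem screen for compounds that inhibit SV40 T antigen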
Sequence of Large T antigen (P03070 whole entry): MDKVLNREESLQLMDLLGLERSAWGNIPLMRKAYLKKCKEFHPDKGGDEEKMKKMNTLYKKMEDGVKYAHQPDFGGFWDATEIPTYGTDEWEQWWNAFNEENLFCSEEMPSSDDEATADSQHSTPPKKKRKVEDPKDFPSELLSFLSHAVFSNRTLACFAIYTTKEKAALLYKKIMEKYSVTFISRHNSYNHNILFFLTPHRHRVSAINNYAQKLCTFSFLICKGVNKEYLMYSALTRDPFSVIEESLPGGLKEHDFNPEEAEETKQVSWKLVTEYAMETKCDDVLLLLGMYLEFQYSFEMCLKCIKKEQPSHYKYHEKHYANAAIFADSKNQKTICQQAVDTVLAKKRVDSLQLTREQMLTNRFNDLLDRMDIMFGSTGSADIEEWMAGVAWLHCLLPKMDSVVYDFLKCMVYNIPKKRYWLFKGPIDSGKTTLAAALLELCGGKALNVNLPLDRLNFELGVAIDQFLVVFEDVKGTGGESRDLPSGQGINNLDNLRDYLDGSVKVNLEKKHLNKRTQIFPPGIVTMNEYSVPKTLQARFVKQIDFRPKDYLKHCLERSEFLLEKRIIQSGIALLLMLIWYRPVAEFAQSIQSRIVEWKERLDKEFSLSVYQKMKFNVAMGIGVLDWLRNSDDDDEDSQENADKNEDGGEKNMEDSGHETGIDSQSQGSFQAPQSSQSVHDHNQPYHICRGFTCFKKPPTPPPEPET

[12] = biological target: T4, Rac GTPase-activating protein 1 (Homo sapiens, UniProt Q9H0H5); assay: blockers of MgcRacGAP-driven Rac1 GTP hydrolysis – biochemical, ADP Hunter fluorescence, primary and confirmatory, confirmation (AID 624330); format: functional
T4 sequence (Q9H0H5 whole entry): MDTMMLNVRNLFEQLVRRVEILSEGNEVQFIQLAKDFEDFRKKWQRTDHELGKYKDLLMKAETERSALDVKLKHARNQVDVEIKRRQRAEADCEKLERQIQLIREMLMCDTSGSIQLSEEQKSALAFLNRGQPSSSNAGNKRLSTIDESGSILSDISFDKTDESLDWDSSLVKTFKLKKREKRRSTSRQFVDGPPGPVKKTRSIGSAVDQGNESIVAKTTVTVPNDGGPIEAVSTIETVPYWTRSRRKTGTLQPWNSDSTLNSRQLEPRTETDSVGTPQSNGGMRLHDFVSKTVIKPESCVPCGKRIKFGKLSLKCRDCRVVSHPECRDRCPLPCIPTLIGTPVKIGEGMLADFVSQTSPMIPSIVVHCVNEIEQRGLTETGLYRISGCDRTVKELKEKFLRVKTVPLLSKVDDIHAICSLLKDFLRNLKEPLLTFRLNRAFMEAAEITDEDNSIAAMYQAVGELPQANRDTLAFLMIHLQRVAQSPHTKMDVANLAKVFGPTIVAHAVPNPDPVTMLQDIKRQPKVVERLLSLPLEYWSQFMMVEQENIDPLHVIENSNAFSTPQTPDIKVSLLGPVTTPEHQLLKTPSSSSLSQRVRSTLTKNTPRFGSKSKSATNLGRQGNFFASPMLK

BJ [13] = assay: BJ-TERT-LT-ST fibroblast viability loss – cell-based, RAS-independent, luminescence, dose response (AID 1935); format: functional; details: Homo sapiens;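 also: BJ fibroblasts immortalized with TERT plus LT and ST oncogenes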
[14] = fluconazole-exposed Candida albicans growth modulators – fluorescence, retest, confirmation (AID 2467); format: functional, cell-based
BJ [15] = assay: cells; format: functional, cell-based; details: Homo sapiens
[16] = test system: Streptococcus sp. 'group A'; assay: Streptococcus pyogenes SK(-)GAS viability under kanamycin – luminescence, BacTiterGlo, confirmation, counter-screen for streptokinase expression inhibitor project, dose response (AID 1900); format: functional, organism-based
[17] = viability of HCT116 lacking mutant beta-catenin – cell-based, human colon tumor, dose response (AID 1045); format: functional;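 also: HCT116 colon tumor cells with beta catenin knocked out; cells exposed to compound for 60 hours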
[18] = HEK-293T viability loss after treatment – luminescence, T-cell screen hits, cytotoxicity control for TCR NF-kB inhibitor project, dose response (AID 489026); format: functional, cell-based;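 also: cells exposed to compound about 14 hours before the viability readout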
Streptokinase A = biological target: T5, Streptokinase A (Streptococcus pyogenes serotype M1, UniProt P10520); assay: viability-normalized secreted streptokinase activity reduction – plasminogen activation absorbance, OD405, dose response (AID 1914); format: functional, Streptococcus pyogenes M1 GAS;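 also: secreted streptokinase activity via plasminogen activation per viability signal from cell pellet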
T5 sequence (P10520 whole entry): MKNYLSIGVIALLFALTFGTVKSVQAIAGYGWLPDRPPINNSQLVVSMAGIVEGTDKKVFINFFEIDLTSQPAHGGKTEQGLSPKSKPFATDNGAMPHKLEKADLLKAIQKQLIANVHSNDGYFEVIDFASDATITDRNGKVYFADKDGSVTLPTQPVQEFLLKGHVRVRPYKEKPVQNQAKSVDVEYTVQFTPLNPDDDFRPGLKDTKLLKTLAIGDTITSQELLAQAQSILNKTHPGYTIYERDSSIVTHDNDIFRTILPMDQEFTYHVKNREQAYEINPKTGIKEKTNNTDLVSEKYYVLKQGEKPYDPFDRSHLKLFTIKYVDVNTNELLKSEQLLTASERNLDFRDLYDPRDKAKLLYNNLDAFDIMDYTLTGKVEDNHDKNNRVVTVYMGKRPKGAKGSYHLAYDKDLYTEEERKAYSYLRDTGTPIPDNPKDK

[19] = biological target: Eukaryotic translation initiation factor 4E (Mus musculus, UniProt P63073); assay: blockers of eIF4G binding by eIF4E – biochemical, TR-FRET, dose response (AID 855); format: functional;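 also: potency for disrupting eIF4E binding to eIF4GI seen as loss of FRET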
Sequence of Eukaryotic translation initiation factor 4E (P63073 whole entry): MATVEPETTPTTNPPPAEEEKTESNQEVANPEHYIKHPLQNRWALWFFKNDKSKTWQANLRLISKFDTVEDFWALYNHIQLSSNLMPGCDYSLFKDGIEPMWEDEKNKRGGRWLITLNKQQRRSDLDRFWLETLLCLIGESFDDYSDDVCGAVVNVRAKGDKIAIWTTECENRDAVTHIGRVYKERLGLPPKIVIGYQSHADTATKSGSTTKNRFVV

Nonstructural protein 1 = Nonstructural protein 1 (Influenza A virus, UniProt Q194T2); format: functional, Influenza A virus (A/California/07/2009(H1N1))
Sequence of Nonstructural protein 1 (Q194T2 whole entry): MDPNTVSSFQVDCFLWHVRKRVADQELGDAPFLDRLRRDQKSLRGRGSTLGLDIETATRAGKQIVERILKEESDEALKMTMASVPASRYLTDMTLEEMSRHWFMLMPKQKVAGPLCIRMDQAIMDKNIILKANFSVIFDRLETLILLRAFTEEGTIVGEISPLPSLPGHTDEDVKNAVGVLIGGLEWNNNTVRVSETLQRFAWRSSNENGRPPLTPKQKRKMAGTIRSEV

BJ [20] = assay: growth inhibition of engineered Ras-driven BJ cells – cell-based, alamar blue fluorescence, cherrypicked samples, dose response (AID 2631); format: functional; details: Homo sapiens;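 also: confirmatory dose-response assay in RAS-dependent BJ fibroblasts engineered with TERT, LT and ST, with cytotoxicity read by fluorescence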
BJ [21] = assay: BJ-TERT fibroblast viability loss – cell-based, RAS-independent, luminescence, dose response (AID 1933); format: functional; details: Homo sapiens
[22] = DRD fibroblast viability loss – cell-based, non-viral oncogenic, luminescence, dose response (AID 1934); format: functional; details: Homo sapiens
[23] = viability loss in HeLa cells – cytotoxicity control for MgcRacGAP inhibitor project, dose response (AID 624300); format: functional
[24] = NIH-3T3 fibroblast cytotoxicity, dose response, cytotoxicity control, cell-based, fluorescence, Alamar Blue, secondary assay (AID 2327); format: functional;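 also: NIH-3T3 mouse fibroblasts cultured with fluconazole at 8 µg/mL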
[25] = viability of PTEN-deleted HCT116 cells – cell-based, HCT116 PTEN knockout, dose response (AID 1047); format: functional;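 also: HCT116 colon tumor cells with PTEN knocked out; cells exposed to compound for 60 hours before readout; potency for loss of cell viability measured by luminescence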
Streptococcus = assay: GAS UMAA2166 growth inhibition – luminescence, BacTiterGlo, counter-screen for streptokinase expression inhibitor project, dose response (AID 1915); format: functional, organism-based;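 also: potency for reduction of bacterial viability or growth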

T1 sequence (O95136 whole entry): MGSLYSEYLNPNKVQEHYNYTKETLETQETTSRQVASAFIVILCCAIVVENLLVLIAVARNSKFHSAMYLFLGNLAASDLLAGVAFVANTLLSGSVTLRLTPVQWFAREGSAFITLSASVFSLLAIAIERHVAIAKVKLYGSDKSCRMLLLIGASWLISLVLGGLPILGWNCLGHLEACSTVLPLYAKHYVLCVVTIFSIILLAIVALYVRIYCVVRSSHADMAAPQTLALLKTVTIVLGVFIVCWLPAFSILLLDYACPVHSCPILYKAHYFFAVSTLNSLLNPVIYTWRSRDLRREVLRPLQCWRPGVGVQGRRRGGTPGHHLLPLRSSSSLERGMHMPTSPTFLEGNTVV

Question: With O=C(O)c1sc2cc(C(F)(F)F)cnc2c1-c1ccco1 as the compound, how does the IC50 [1] read?
Answer: Its IC50 is > 30 µM (not active).

Question: With CS(=O)(=O)NCc1nnc(SCC(=O)NC2CCCCC2)n1-c1ccc(F)cc1 as the compound, how does the EC50 [2] read?
Answer: The EC50 was > 50 µM (not active).

Question: Which IC50 [3] does the source give for Cc1nc(O)c(C(=O)/C=C/c2ccccc2F)c2c1CCCC2 here?
Answer: Its IC50 is 1.52 µM (active).

Question: And the EC50 (H4)?
Answer: The EC50 was > 120 µM (not active).

Question: And the EC50 [4]?
Answer: The EC50 was 9.92 µM (active).

Question: And the EC50 [5]?
Answer: The EC50 was > 120 µM (not active).

Question: With O=C(N/N=C1/C(=O)c2cccc3cccc1c23)c1ccc(Cl)cc1 as the compound, how does the IC50 [6] read?
Answer: The IC50 was 4.31 µM (active).

Question: With COC(=O)C(Cl)C(=O)OC as the compound, how does the IC50 [7] read?
Answer: Its IC50 is > 33.3 µM (inactive).

Question: What about the IC50 [8] of the same compound?
Answer: The IC50 was 8.37 µM (inactive).

Question: And the IC50 [9]?
Answer: Its IC50 is > 40 µM (inactive).

Question: With Oc1ccc2ccccc2c1/C=N/c1ccc(N2CCOCC2)cc1 as the compound, how does the EC50 [10] read?
Answer: Its EC50 is > 300 µM (not active).

Question: What about the EC50 [11] of the same compound?
Answer: Its EC50 is > 300 µM (not active).

Question: And the IC50 (Large T antigen)?
Answer: Its IC50 is 36 µM (active).

Question: What about the IC50 [6] of the same compound?
Answer: The IC50 was 10.6 µM (not active).

Question: Which IC50 [12] does the source give for CCN1/C(=C/c2ccc3ccccc3[n+]2CC)C=Cc2ccccc21 here?
Answer: The IC50 was 46.5 µM (active).

Question: And the EC50 (BJ [13])?
Answer: The EC50 was 3.1 µM (inconclusive).

Question: And the EC50 [14]?
Answer: Its EC50 is 0.639 µM (active).

Question: What about the EC50 (BJ [15]) of the same compound?
Answer: The EC50 was 2.73 µM (active).

Question: And the EC50 [16]?
Answer: The EC50 was 4.74 µM (active).

Question: What about the EC50 [17] of the same compound?
Answer: Its EC50 is 0.167 µM (active).

Question: What about the IC50 [18] of the same compound?
Answer: The IC50 was 33.1 µM (inactive).

Question: And the EC50 (Streptokinase A)?
Answer: Its EC50 is > 150 µM (not active).

Question: What about the IC50 [19] of the same compound?
Answer: The IC50 was 33.8 µM (inactive).

Question: What about the IC50 (Nonstructural protein 1) of the same compound?
Answer: Its IC50 is 12.8 µM (active).

Question: What about the EC50 (BJ [20]) of the same compound?
Answer: Its EC50 is 1.89 µM (active).

Question: What about the EC50 (BJ [21]) of the same compound?
Answer: The EC50 was 1.21 µM (active).

Question: And the EC50 [22]?
Answer: The EC50 was 3.27 µM (active).

Question: What about the CC50 [23] of the same compound?
Answer: The CC50 was 19 µM (active).

Question: And the EC50 [24]?
Answer: Its EC50 is 12 µM (active).

Question: And the IC50 [1]?
Answer: Its IC50 is 3.1 µM (active).

Question: What about the EC50 [25] of the same compound?
Answer: Its EC50 is 0.249 µM (active).

Question: And the EC50 (Streptococcus)?
Answer: The EC50 was 35 µM (active).

Question: For Cc1ccc(O)cc1 [p-CRESOL], which IC50 [7] is on record?
Answer: The IC50 was > 33.3 µM (inactive).

Question: And the IC50 [8]?
Answer: The IC50 was > 40 µM (inactive).

Question: And the IC50 [9]?
Answer: Its IC50 is > 40 µM (inactive).
